A word on the IC50: it is the point on the concentration scale where inhibition reaches its midpoint.

Bounds are passed on as bounds.

Sequence of USP30 (Q70CQ3 57-517): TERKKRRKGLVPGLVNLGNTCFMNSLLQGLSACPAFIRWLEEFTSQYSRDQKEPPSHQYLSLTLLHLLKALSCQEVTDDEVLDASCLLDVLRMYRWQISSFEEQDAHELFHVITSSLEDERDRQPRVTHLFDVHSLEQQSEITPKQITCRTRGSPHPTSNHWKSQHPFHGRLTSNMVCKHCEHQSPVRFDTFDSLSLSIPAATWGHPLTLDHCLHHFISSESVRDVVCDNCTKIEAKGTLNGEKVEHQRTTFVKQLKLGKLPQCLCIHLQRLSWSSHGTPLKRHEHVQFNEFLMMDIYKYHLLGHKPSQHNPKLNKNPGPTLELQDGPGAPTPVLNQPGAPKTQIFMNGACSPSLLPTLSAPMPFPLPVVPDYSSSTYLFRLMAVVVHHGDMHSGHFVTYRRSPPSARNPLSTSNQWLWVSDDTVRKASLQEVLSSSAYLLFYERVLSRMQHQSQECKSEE

The target of the assay is USP30 (Homo sapiens (Human), UniProt Q70CQ3). Briefly: USP30 biochemical FP or FI IC50 assay. The conditions noted are these: read-out: IC50 range. The method, boiled down:
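Human USP30 preincubated 30 min at room temperature with compound (8-point series, 100 µM top final) in Tris pH 7.5, Tween 20, BSA, 5 mM β-mercaptoethanol, in duplicate. FP format: 50 nM TAMRA-peptide–isopeptide-ubiquitin substrate, ex 540/em 590. FI format: 100 nM ubiquitin-rhodamine 110, ex 487/em 535. Both read at 0 and after 2 h at room temperature.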
As to `COc1ccccc1-c1cc(C(=O)N[C@@H]2CCN(C#N)C2)n[nH]1` [Example 97, (R)-N-(1-cyanopyrrolidin-3-yl)-5-(2-methoxyphenyl)-1H-pyrazole-3-carboxamide], the IC50 was < 0.1 µM.

As for `N#CN1CC[C@@H](NC(=O)c2cc(-c3ccccc3F)[nH]n2)C1` [Example 98, (R)-N-(1-cyanopyrrolidin-3-yl)-5-(2-fluorophenyl)-1H-pyrazole-3-carboxamide], the IC50 is < 0.1 µM.

Turning to `N#CN1CC[C@@H](NC(=O)c2ccc(N3CCOCC3)nc2)C1` [Example 99, (R)-N-(1-cyanopyrrolidin-3-yl)-6-morpholinonicotinamide], the IC50 lay in the range of 0.1 to 1 µM.

For the compound `COc1ccc(-c2cc(C(=O)N[C@@H]3CCN(C#N)C3)on2)cc1` [Example 100, (R)-N-(1-cyanopyrrolidin-3-yl)-3-(4-methoxyphenyl)isoxazole-5-carboxamide], the IC50 was < 0.1 µM.

For `N#CN1CC[C@@H](NC(=O)c2n[nH]c3ccccc23)C1` [Example 101, (R)-N-(1-cyanopyrrolidin-3-yl)-1H-indazole-3-carboxamide], the IC50 was 0.1 to 1 µM.

On to `N#CN1CC[C@@H](NC(=O)c2cc(-c3ccccc3)[nH]n2)C1` [Example 102, (R)-N-(1-cyanopyrrolidin-3-yl)-phenyl-1H-pyrazole-3-carboxamide], for which the IC50 is < 0.1 µM.

As to `N#CN1CC[C@@H](NC(=O)c2cc(-c3cccnc3)[nH]n2)C1` [Example 103, (R)-N-(1-cyanopyrrolidin-3-yl)-5-(pyridin-3-yl)-1H-pyrazole-3-carboxamide], the IC50 was in the range of 0.1 to 1 µM.

Consider `Cn1cc(-c2cccc(C(=O)N[C@@H]3CCN(C#N)C3)c2F)cn1` [Example 104, (R)-N-(1-cyanopyrrolidin-3-yl)-2-fluoro-3-(1-methyl-1H-pyrazol-4-yl)benzamide], for which the IC50 fell in the range of 0.1 to 1 µM.

On to `Cc1nccc(-c2ccc(C(=O)N[C@@H]3CCN(C#N)C3)c(F)c2)n1` [Example 105, (R)-N-(1-cyanopyrrolidin-3-yl)-2-fluoro-4-(2-methylpyrimidin-4-yl)benzamide], for which the IC50 is < 0.1 µM.

Regarding `Cn1cc(-c2ccc(C(=O)N[C@@H]3CCN(C#N)C3)nc2)cn1` [Example 106, (R)-N-(1-cyanopyrrolidin-3-yl)-5-(1-methyl-1H-pyrazol-4-yl)picolinamide], the half-inhibitory concentration (IC50) fell in the range of 0.1 to 1 µM.

As to `Cn1cc(-c2ccc(F)c(C(=O)N[C@@H]3CCN(C#N)C3)c2)cn1` [Example 107, (R)-N-(1-cyanopyrrolidin-3-yl)-2-fluoro-5-(1-methyl-1H-pyrazol-4-yl)benzamide], the IC50 lay in the range of 0.1 to 1 µM.

Regarding `N#CN1CC[C@@H](NC(=O)c2ccc(-c3ccncn3)cc2F)C1` [Example 108, (R)-N-(1-cyanopyrrolidin-3-yl)-2-fluoro-4-(pyrimidin-4-yl)benzamide], the IC50 lay in the range of 0.1 to 1 µM.

Take `N#CN1CC[C@@H](NC(=O)c2ccc(-c3cnc4nccn4c3)cc2F)C1` [Example 109, (R)-N-(1-cyanopyrrolidin-3-yl)-2-fluoro-4-(imidazo[1,2-a]pyrimidin-6-yl)benzamide]: the concentration for half-maximal inhibition (IC50) was in the range of 0.1 to 1 µM.

In the case of `COc1cc(-c2cnn(C)c2)ccc1C(=O)N[C@@H]1CCN(C#N)C1` [Example 110, (R)-N-(1-cyanopyrrolidin-3-yl)-2-methoxy-4-(1-methyl-1H-pyrazol-4-yl)benzamide], the IC50 lay in the range of 0.1 to 1 µM.

For `Cn1cc(-c2ccc(C(=O)N[C@@H]3CCN(C#N)C3)cn2)cn1` [Example 111, (R)-N-(1-cyanopyrrolidin-3-yl)-6-(1-methyl-1H-pyrazol-4-yl)nicotinamide], the IC50 is 0.1 to 1 µM.

For the compound `Cn1cc(-c2cc(F)c(C(=O)N[C@@H]3CCN(C#N)C3)c(F)c2)cn1` [Example 113, (R)-N-(1-cyanopyrrolidin-3-yl)-2,6-difluoro-4-(1-methyl-1H-pyrazol-4-yl)benzamide], the IC50 is 0.1 to 1 µM.

Take `Cn1cc(-c2ccc3c(C(=O)N[C@@H]4CCN(C#N)C4)cnn3c2)cn1` [Example 114, (R)-N-(1-cyanopyrrolidin-3-yl)-6-(1-methyl-1H-pyrazol-4-yl)pyrazolo[1,5-a]pyridine-3-carboxamide]: the IC50 fell in the range of 0.1 to 1 µM.

`COc1c(-c2cnn(C)c2)ccc(C(=O)N[C@@H]2CCN(C#N)C2)c1F` [Example 115, (R)-N-(1-cyanopyrrolidin-3-yl)-2-fluoro-3-methoxy-4-(1-methyl-1H-pyrazol-4-yl)benzamide]: the half-inhibitory concentration (IC50) lay in the range of 0.1 to 1 µM.

With `N#Cc1cccc(-c2ccc3nc(C(=O)N[C@@H]4CCN(C#N)C4)cn3c2)c1` [Example 116, (R)-6-(3-cyanophenyl)-N-(1-cyanopyrrolidin-3-yl)imidazo[1,2-a]pyridine-2-carboxamide], the IC50 was < 0.1 µM.

As for `N#Cc1ccc(-c2ccc3nc(C(=O)N[C@@H]4CCN(C#N)C4)cn3c2)cc1` [Example 117, (R)-6-(4-cyanophenyl)-N-(1-cyanopyrrolidin-3-yl)imidazo[1,2-a]pyridine-2-carboxamide], the IC50 lay in the range of 0.1 to 1 µM.

Consider `N#CN1CC[C@@H](NC(=O)c2ccc(-c3ccc4nccn4c3)cc2F)C1` [Example 118, (R)-N-(1-cyanopyrrolidin-3-yl)-2-fluoro-4-(imidazo[1,2-a]pyridin-6-yl)benzamide], for which the IC50 is < 0.1 µM.

As to `N#CN1CC[C@@H](NC(=O)c2ccc(-c3ccnc(N4CCOCC4)c3)cc2F)C1` [Example 119, (R)-N-(1-cyanopyrrolidin-3-yl)-2-fluoro-4-(2-morpholinopyridin-4-yl)benzamide], the IC50 is < 0.1 µM.

For the compound `Cn1ncc2cc(-c3cnc(C(=O)N[C@@H]4CCN(C#N)C4)c(F)c3)ccc21` [Example 120, (R)-N-(1-cyanopyrrolidin-3-yl)-3-fluoro-5-(1-methyl-1H-indazol-5-yl)picolinamide], the IC50 was < 0.1 µM.

On to `Cn1ccc2cc(-c3cnc(C(=O)N[C@@H]4CCN(C#N)C4)c(F)c3)cnc21` [Example 121, (R)-N-(1-cyanopyrrolidin-3-yl)-3-fluoro-5-(1-methyl-1H-pyrrolo[2,3-b]pyridin-5-yl)picolinamide], for which the IC50 is < 0.1 µM.

Regarding `Cc1nn(C)cc1-c1cnc(C(=O)N[C@@H]2CCN(C#N)C2)c(F)c1` [Example 122, (R)-N-(1-cyanopyrrolidin-3-yl)-5-(1,3-dimethyl-1H-pyrazol-4-yl)-3-fluoropicolinamide], the half-inhibitory concentration (IC50) was in the range of 0.1 to 1 µM.

As for `N#CN1CC[C@@H](NC(=O)c2ncc(-c3ccc(F)cc3)cc2Cl)C1` [Example 123, (R)-3-chloro-N-(1-cyanopyrrolidin-3-yl)-5-(4-fluorophenyl)picolinamide], the IC50 is < 0.1 µM.

`Cn1cc(-c2ccc3nc(C(=O)N[C@@H]4CCN(C#N)C4)cn3c2)cn1` [Example 124, (R)-N-(1-cyanopyrrolidin-3-yl)-6-(1-methyl-1H-pyrazol-4-yl)imidazo[1,2-a]pyridine-2-carboxamide]: the IC50 lay in the range of 0.1 to 1 µM.

Take `Cc1nn(C)cc1-c1ccc2nc(C(=O)N[C@@H]3CCN(C#N)C3)cn2c1` [Example 125, (R)-N-(1-cyanopyrrolidin-3-yl)-6-(1,3-dimethyl-1H-pyrazol-4-yl)imidazo[1,2-a]pyridine-2-carboxamide]: the IC50 lay within 0.1 to 1 µM.

Consider `Cn1cc(-c2ccc3[nH]nc(C(=O)N[C@@H]4CCN(C#N)C4)c3c2)cn1` [Example 126, (R)-N-(1-cyanopyrrolidin-3-yl)-5-(1-methyl-1H-pyrazol-4-yl)-1H-indazole-3-carboxamide], for which the IC50 is < 0.1 µM.

Take `Cn1cc(-c2ccc3c(C(=O)N[C@@H]4CCN(C#N)C4)n[nH]c3c2)cn1` [Example 127, (R)-N-(1-cyanopyrrolidin-3-yl)-6-(1-methyl-1H-pyrazol-4-yl)-1H-indazole-3-carboxamide]: the IC50 lay in the range of 0.1 to 1 µM.

Consider `Cc1noc(C)c1-c1ccc2cc(C(=O)N[C@@H]3CCN(C#N)C3)[nH]c2c1` [Example 128, (R)-N-(1-cyanopyrrolidin-3-yl)-6-(3,5-dimethylisoxazol-4-yl)-1H-indole-2-carboxamide], for which the IC50 was < 0.1 µM.

Take `Cc1nn(C)cc1-c1ccc2cc(C(=O)N[C@@H]3CCN(C#N)C3)[nH]c2c1` [Example 129, (R)-N-(1-cyanopyrrolidin-3-yl)-6-(1,3-dimethyl-1H-pyrazol-4-yl)-1H-indole-2-carboxamide]: the IC50 was < 0.1 µM.

For `Cn1cc(-c2ccc3[nH]c(C(=O)N[C@@H]4CCN(C#N)C4)cc3c2)cn1` [Example 130, (R)-N-(1-cyanopyrrolidin-3-yl)-5-(1-methyl-1H-pyrazol-4-yl)-1H-indole-2-carboxamide], the IC50 was < 0.1 µM.

Take `CCn1cc(-c2cnc(C(=O)N[C@@H]3CCN(C#N)C3)cc2C)cn1` [Example 132, (R)-N-(1-cyanopyrrolidin-3-yl)-5-(1-ethyl-1H-pyrazol-4-yl)-4-methylpicolinamide]: the IC50 lay within 0.1 to 1 µM.

Take `N#CN1CC[C@@H](NC(=O)N2CC(Oc3ccccc3)C2)C1` [Example 133, (R)-N-(1-cyanopyrrolidin-3-yl)-3-phenoxyazetidine-1-carboxamide]: the IC50 lay within 0.1 to 1 µM.

With `N#CN1CC[C@@H](NC(=O)N2CC(c3nc4ccccc4[nH]3)C2)C1` [Example 134, (R)-3-(1H-benzo[d]imidazol-2-yl)-N-(1-cyanopyrrolidin-3-yl)azetidine-1-carboxamide], the IC50 lay within 0.1 to 1 µM.

For the compound `N#CN1CC[C@@H](NC(=O)N2CCN(c3ccccc3)CC2)C1` [Example 135, (R)-N-(1-cyanopyrrolidin-3-yl)-4-phenylpiperazine-1-carboxamide], the IC50 lay within 0.1 to 1 µM.

As to `N#CN1CC[C@@H](NC(=O)N2CCOC(c3ccccc3)C2)C1` (stereo partly drawn) [Example 136, N-((R)-1-cyanopyrrolidin-3-yl)-2-phenylmorpholine-4-carboxamide], the IC50 was in the range of 0.1 to 1 µM.

Turning to `N#CN1CC[C@@H](NC(=O)N2CCCN(Cc3c(F)cccc3Cl)CC2)C1` [Example 137, (R)-4-(2-chloro-6-fluorobenzyl)-N-(1-cyanopyrrolidin-3-yl)-1,4-diazepane-1-carboxamide], the IC50 is 0.1 to 1 µM.

For `N#CN1CC[C@@H](NC(=O)N2CCCN(Cc3ccccc3)CC2)C1` [Example 138, (R)-4-benzyl-N-(1-cyanopyrrolidin-3-yl)-1,4-diazepane-1-carboxamide], the IC50 lay in the range of 0.1 to 1 µM.
